Two compounds from patent publication US8343912B2, “Antibiotic compositions for the treatment of gram negative infections” (priority 2008, dated 2013) can be followed below.

Values after ≈ are worked out from the molar mass of the structure shown. “Also recorded” adds a separate entry of the source. Numbered stars: 1 amine (or outer) side, 2 acyl side, 3 side chain; on linkers, the order of the positions; unused ones are H or OH. Bridge positions count the residues as written; N and C are the ends. Square brackets hold non-standard residues; d marks the D form. Peptide text beside a SMILES is read from it. * marks the point of attachment. Octanoyl(6-Me) = CCC(C)CCCCC(=O)*; NH(2-ClPh) = Clc1ccccc1N*; Dab = NCC[CH](N)C(=O)O; CO = O=C([*:1])[*:2]

A short description of data set [1]: Cell culture cytotoxicity assay (ATP bioluminescence, LLC-PK1). Conditions: rat; read-out: EC50, rat kidney proximal tubule cell culture cytotoxicity assay. The data set is classed as cell-based, rat. On the procedure:
Day 1: 1×10^5 to 2×10^5 cellswere inoculated (Cell line: LLC-PK1) per flask, containing 4 mL/T25 flask of medium DMEM-F12 (50/50) media supplemented with 10% FBS (Fetal Bovine Serum). The cells were then incubated at 37° C., 5% CO2, 80% RH.
Day 4: The cell cultures were examined to determine 80% confluency. To trypsinize of the 80% confluent flasks, 4 mL of DMEM-F12-10% FBS media was prepared per flask. The media was aspirated from the flask and 5 mL of Versene was added to rinse the flask. The Versene was aspirated and 2 mL of triple Express solution (trypsin solution) was added. The cells were incubated for 5 min at room temperature and examined via microscopy for the rounding of the cells and their detachment. To speed up the reaction, the flask can be incubated at 37° C. for 3 minutes. 4 mL of media (DMEM-F12-10%FBS) was added to stop the reaction. Using a 5 mL pipette, the completed reaction was pipetted up and down to ensure that the cells were properly detached from the flask and from each others. The cell number was counted using a hemocytometer slide. 100 μL of cell suspension was transferred to a tube and 100 μL of Trypan Blue was added. Inoculum for 96 well is 10,000 cells per well. For one 96 well plate, 26.3 μL×110 well=2893 μL total. 2.9 mL of cell suspension was mixed with 8.1 mL of media DMEM-F12-10% FBS and 100 μL was distributed to each well using a multichannel pipetter. The plate was then Incubated for 24 h at 37° C.
Day 5: DMEM-F12 (no FBS) medium was dispensed into tubes with the test article to achieve final concentrations of […]. The 96 well plate was taken off the incubator and media was removed from each well using multichannel pipetter. 80 μL of serially diluted compounds of Formula (I) was added to each well. Every set of concentration was done in triplicate. Media and positive controls were added to each plate and the plates were incubated for 24 hours at 37° C.
Day 6: The plates were taken from the incubator, the media was removed from each well, and 100 μL of fresh media DMEM-F12 (this is equivalent to a rinse and the media can be replaced with PBS) was added. The media is then removed and 80 μL of cell lysis solution is added. After 5 minutes, 80 μL of sterile filtered high quality water was added to each well. Using a white or black 96 well reaction plate, 80 μL of 25× diluted ATP mix reagent (Sigma Bioluminescent Somatic Cell Assay Kit [cat #FL-ASC]) was added into one column. 80 μL of diluted ATP standards (dilutions used: 250, 500, 1000, 2000 and 4000) was added and the plate was read immediately in the topcount with a 2 second read time. In another white or black 96 well reaction plate, 80 μL of 25× diluted ATP mix reagent (plate A) was added and 80 μL of lysis-water solution was transferred to each column of plate A. The plate was then read immediately in the topcount with a 2 second read time. This process was repeated for next consecutive plate and the EC50 for certain compounds of Formula I were calculated and provided in Table 4.

In data set [2] the test system is S. maltophilia. In words: MIC90, broth microdilution, panel of Gram negative clinical isolates. The class given is cell-based, Stenotrophomonas maltophilia. Conditions: 25 strains. The method, then:
To evaluate the potency and spectrum of compounds of Formula (I), (i.e., Compounds designated 5 and 6), a study was conducted that put together a panel of 455 Gram negative strains, which included multi-drug resistant clinical isolates selected from various surveillance programs. Table 3A lists the strains that were included in the study and the activity of Compound 5, Compound 6, and colistin (polymyxin E, abbreviated PME). Strains with acquired resistance to colistin and/or carbapenems and/or broad spectrum cephalosporins were pre-selected and included in all organism groups evaluated.
MIC testing was performed according to Clinical and Laboratory Standards Institute (CLSI) M7-A7 (2006) broth microdilution methods. Unless otherwise indicated, MIC values are provided in units of micrograms per milliliter.
One day prior to testing, individual colonies were isolated by streaking onto rich, non-selective Tryptic Soy agar with 5% lysed sheeps blood (TSAB) with incubation at 35-37° C. for 18-24 hours.
Cultures were prepared by touching 3-5 colonies into 3 mL of Cation adjusted Mueller Hinton Broth (caMHB) in a 14 mL tube (CaMHB was prepared and sterilized according to manufacturer's specifications). Cultures were grown at 37° C. 200 rpm for approximately four hours prior to density adjustment for addition to the MIC assay.
OD600 of growing cultures was measured and adjusted to approximately 10^5 colony forming units per mL (CFU/mL) in caMHB for MIC inoculation (approximately OD600 0.001).
Diluted cultures were used to inoculate 50 μL per well in broth microdilution assays (final volume 100 μl per well; compounds were prepared in two-fold dilutions).
Plates were incubated 16-20 hrs at 37° C., with shaking at 200 rpm.
OD600 was determined for all wells. Growth was defined as OD600>0.1. MICs were defined as the lowest concentration producing no visible turbidity (OD600<0.1).
In general terms: In broth dilution the organism is exposed to a series of concentrations in liquid medium.

The subject of data set [3] is cynomolgus monkeys. In words: Comparative 7 day repeat dose safety study, renal toxicity. Conditions: for renal histologic findings: IV infusion; for nephrotoxicity compared with polymyxin B: equivalent antibacterial activity doses (75,000 to 112,500 IU/kg), FIG. 2. The class given is in vivo, cynomolgus monkey. On the procedure: A comparative 7 day repeat dose safety study in cynomologous monkeys between polymyxin B and Compound 5 was performed.
Animals were 2.52 kg to 3.77 kg and were 4.2 to 5.7 years old. During acclimation, a chronic femoral intravenous catheter was implanted into all animals to permit continuous infusion. The femoral vein catheter was routed subcutaneously to exit through a prepared incision in the interscapular region. Animals were fitted with jackets connected to flexible stainless steel tethers that protected the catheters.
Monkeys were dosed twice or three times daily for seven days with control article (0.9% Sodium Chloride for Injection, USP), 25000 IU/kg Compound 5, 37500 IU/kg Compound 5, or 37500 IU/kg PMB (Alpharma, lot number A1411079). Each administration was given via a targeted 30-minute intravenous infusion.
The following parameters were evaluated: daily clinical observations and qualitative food consumption, body weight (twice prior to the first dosing and at necropsy), urinalysis, hematology, coagulation, serum chemistry, toxicokinetics, gross pathology, organ weights, and histopathology of the kidneys and injection sites, and of the liver and sciatic nerves of control and high dose groups. Animals were evaluated through Study Day 7 and then terminated.
FIG. 2 is a scatter plot showing nephrotoxicity data measured as a cumulative score based upon tubular degeneration, tubular regeneration, tubular dilatation, and tubular casts. Each category was scored on a basis from 0 to 4 based on the severity of each finding.
For comparison of Compound 5 and polymyxin B, the nephrotoxicity was measured as a cumulative score based upon tubular degeneration, tubular regeneration, tubular dilatation, and tubular casts. Each category was scored on a basis from 0 to 4 based on the severity of each finding and individual monkeys are represented in the FIG. 2.

Data set [4] in a line: Serum protein binding.

As a reminder, the EC50 is the concentration that produces a half-maximal response. What is called fraction unbound is the share of the substance not bound to proteins or other matrix. Low values mean little free substance, high ones much free substance. As to `CCC(C)CCCCC(=O)NC(CCN)C(=O)NC(C(=O)NC(CCN)C(=O)NC1CCNC(=O)C(C(C)O)NC(=O)C(CCN)NC(=O)C(CCN)NC(=O)C(CC(C)C)NC(=O)C(Cc2ccccc2)NC(=O)C(CCN)NC1=O)C(C)O` (centres unmarked) [Polymyxin B, polymyxin B, reference compound] ({Octanoyl(6-Me)}-[Dab]T[Dab][Dab][Dab]FL[Dab][Dab]T; lactam 4-C; configuration not given here), the concentration giving a half-maximal response (EC50) at 24 h in data set [1] was 318 µg/mL (≈ 264 µM). Further, the “MIC90 S. maltophilia” value in data set [2] came to 8 micrograms/mL. In data set [3] (75,000 IU/kg/day, 7 days), the “serum creatinine and BUN concentrations” value is recorded as “mild increases”; the renal histologic findings result is “renal tubular histology similar to findings from animals receiving 112,500 IU/kg/day of Compound 5”. For the same compound, in data set [3] (112,500 IU/kg/day, 7 days), the “serum creatinine and blood urea nitrogen concentrations” value is listed as “elevations”; the renal histologic findings result was “involvement of a majority of cortical and some medullary tubules containing necrotic or degenerate cells”. In addition, the fraction unbound in data set [4] is roughly 0.44.
For `CC(C)C[C@@H]1NC(=O)[C@@H](Cc2ccccc2)NC(=O)[C@H](CCN)NC(=O)[C@@H](NC(=O)[C@H](CCN)NC(=O)[C@@H](NC(=O)[C@H](CCN)NC(=O)Nc2ccccc2Cl)[C@@H](C)O)CCNC(=O)[C@H]([C@@H](C)O)NC(=O)[C@H](CCN)NC(=O)[C@H](CCN)NC1=O` [Compound 5, (S)-4-amino-N-((2S,3R)-1-((S)-4-amino-1-oxo-1-((3S,6S,9S,12S,15R,18S,21S)-6,9,18-tris(2-aminoethyl)-15-benzyl-3-((R)-1-hydroxyethyl)-12-isobutyl-2,5,8,11,14,17,20-heptaoxo-1,4,7,10,13,16,19-heptaazacyclotricosan-21-ylamino)butan-2-ylamino)-3-hydroxy-1-oxobutan-2-yl)-2-(3-(2-chlorophenyl)ureido)butanamide] ({NH(2-ClPh)-CO}-[Dab]T[Dab][Dab][Dab][dF]L[Dab][Dab]T; lactam 4-C), the EC50 at 24 h in data set [1] was greater than 1000 µg/mL. Further, in data set [2], the “MIC90 S. maltophilia” value is given as greater than 16 micrograms/mL. Further, the renal histologic findings result in data set [3] (75,000 IU/kg/day, 7 days) was “very minimal histologic changes”; in data set [3] (112,500 IU/kg/day, 7 days), “increases in numbers and severity of cortical and medullary tubules containing necrotic or degenerative cells”. Moreover, the figures for the “nephrotoxicity compared with polymyxin B” value in data set [3] and in data set [3] (listed as compound 5) were “notably less severe nephrotoxicity; also recorded: markedly less nephrotoxic” and “reduced renal toxicity”, respectively. Further, the fraction unbound in data set [4] is roughly 0.7.
